According to article PMC5047057 (Oral oncology, 2016):

Legend:
Rb-positive cell lines = conditions: cited from earlier work
clinical = test: clinical; set-up: species or system human; conditions: in vivo; for Tmax / AUC(0-t) / Cmax: human, po; for AUC(0-t): AUC0-24h
[1] = test system: patients with recurrent/metastatic head and neck squamous cell carcinoma (HNSCC)
[2] = test system: Rb-negative tumor xenografts; conditions: cited from earlier work
[3] = test system: patients with Rb-positive cancers; conditions: cited from earlier work
[4] = Palbociclib 125 mg (n=6 pts) with weekly cetuximab, all cycles

For `CC(=O)c1c(C)c2cnc(Nc3ccc(N4CCNCC4)cn3)nc2n(C2CCCC2)c1=O` [palbociclib], the Anti-proliferative effects (Rb-positive cell lines) is given as “potent anti-proliferative effects”, the Tmax (clinical; 100 mg) is given as 8 h and the AUC(0-t) (clinical; 100 mg) is given as 1480 ng·h/mL. The Cmax (clinical; 100 mg) was 70 ng/mL, the Tmax (clinical; 100 mg, Tmax) was 8 h and the AUC(0-t) (clinical; 125 mg) was 2230 ng·h/mL. For the same molecule, the Cmax (clinical; 125 mg) was 145 ng/mL, the Tmax (clinical; 125 mg, Tmax) was 8 h and the “Dose-normalized Cmax and AUC0-24h, 100 vs 125 mg daily oral doses” value (clinical) was “comparable”. For the same molecule, the “Acneiform Rash, Grade 3 (number of patients)” value [1, 4] was 0, the “Acneiform Rash, Grades 1-2 (number of patients)” value [1, 4] was 5 and the “Anemia, Grade 3 (number of patients)” value [1, 4] was 0. The “Anemia, Grades 1-2 (number of patients)” value [1, 4] was 6, the “Diarrhea, Grade 3 (number of patients)” value [1, 4] was 0 and the “Diarrhea, Grades 1-2 (number of patients)” value [1, 4] was 1. For the same molecule, the “Fatigue, Grade 3 (number of patients)” value [1, 4] was 0, the “Fatigue, Grades 1-2 (number of patients)” value [1, 4] was 3 and the “Hypomagnesemia, Grade 3 (number of patients)” value [1, 4] was 0. The “Hypomagnesemia, Grades 1-2 (number of patients)” value [1, 4] was 2, the “Infusion Reaction, Grade 3 (number of patients)” value [1, 4] was 0 and the “Infusion Reaction, Grades 1-2 (number of patients)” value [1, 4] was 1. The “Nausea, Grade 3 (number of patients)” value [1, 4] was 0, the “Nausea, Grades 1-2 (number of patients)” value [1, 4] was 2 and the “Neutropenia, Grade 3 (number of patients)” value [1, 4] was 2. The “Neutropenia, Grades 1-2 (number of patients)” value [1, 4] was 2, the “Thrombocytopenia, Grade 3 (number of patients)” value [1, 4] was 0 and the “Thrombocytopenia, Grades 1-2 (number of patients)” value [1, 4] was 3. For the same molecule, the “Vomiting, Grade 3 (number of patients)” value [1, 4] was 0, the “Vomiting, Grades 1-2 (number of patients)” value [1, 4] was 1 and the “Palbociclib dose recommended for phase II trials” value ([1]; days 1-21 of a 28 day cycle with standard doses of weekly cetuximab) was 125 mg/day. The Intra-patient dose reductions ([1]; in vivo) was “did not occur”, the “Most common AE” value ([1]; in vivo) was “Myelosuppression” and the “Maximum tolerated dose (MTD)” value ([1]; palbociclib up to 125 mg/day days 1-21 of 28 with standard weekly cetuximab) was “not reached”. For the same molecule, the Activity in xenografts [2] was “no activity”, the “Systemic exposure versus dose” value ([3]; dose range of 25-150 mg) was “dose proportionality” and the “Maximum tolerated dose (MTD)” value ([3]; once daily, administered for 21 days of each 28 day cycle, monotherapy) was 125 mg. For the same molecule, the “Dose-limiting toxicity (DLT)” value ([3]; palbociclib monotherapy phase I trials) was “neutropenia”.
